Patent publication EP0326331B1, “Substituted quinolines and cinnolines” (Dow AgroSciences LLC, priority 1988, dated 1989)
Like-named read-outs stand apart in the source and are kept apart here.

Tests used:
Assay type in all cases: in vivo
[1] = system: Erysiphe graminis tritici (powdery mildew); assay: Test 1 greenhouse foliar spray screen, powdery mildew on wheat; settings: for POWD MDEW: disease control rating, foliar spray on wheat, 400 ppm (+++ at 100 ppm)
[2] = system: Pyricularia oryzae (rice blast); assay: whole plant or invertebrate; settings: for RICE BLAST: disease control rating, foliar spray on rice, 400 ppm (+++ at 100 ppm)
[3] = system: Puccinia recondita tritici (leaf rust); assay: Test 1 greenhouse foliar spray screen, leaf rust on wheat; settings: for LEAF RUST: disease control rating, foliar spray on wheat, 400 ppm (+++ at 100 ppm)
[4] = system: Botrytis cinerea (gray mold); assay: Test 1 greenhouse foliar spray screen, gray mold on grape berries; settings: for GRAY MOLD: disease control rating, spray on grape berries, 400 ppm (+++ at 100 ppm)
[5] = system: Pseudoperonospora cubensis (downy mildew); assay: Test 1 greenhouse foliar spray screen, downy mildew on squash; settings: for DOWN MDEW: disease control rating, foliar spray on squash, 400 ppm (+++ at 100 ppm)
[6] = system: Cercospora beticola (leaf spot); assay: Test 1 greenhouse foliar spray screen, leaf spot on sugar beet; settings: for LEAF SPOT: disease control rating, foliar spray on sugar beet, 400 ppm (+++ at 100 ppm)
[7] = system: Venturia inaequalis (apple scab); assay: Test 1 greenhouse foliar spray screen, apple scab on apple seedling; settings: for APPL SCAB: disease control rating, foliar spray on apple seedling, 400 ppm (+++ at 100 ppm)
[8] = system: Septoria tritici (leaf blotch); assay: Test 1 greenhouse foliar spray screen, leaf blotch on wheat; settings: for LEAF BLOT: disease control rating, foliar spray on wheat, 400 ppm (+++ at 100 ppm)
[9] = system: southern armyworm (Spodopetra eridania Cramer); assay: Mite/insect screen, SAW; settings: percent mortality; for mortality at 200 ppm / mortality at 400 ppm: Spodoptera eridania, read-out: SAW RESULTS %
Procedure, shortened: (§1)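 Compounds dissolved in acetone/alcohol (50:50) with TOXIMUL R and S emulsifiers, diluted in water to test concentrations, and sprayed to runoff on both leaf surfaces at 10 psi, then dried 1 h. For armyworm, excised treated leaves were offered to larvae; percent mortality scored after standard exposure periods.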

[10] = system: Twospotted spider mites (Tetranychus urticae Koch); assay: Mite/insect screen, SM; settings: percent mortality; for mortality at 200 ppm / mortality at 400 ppm: Tetranychus urticae, read-out: SM RESULTS %
Procedure, shortened: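 Compounds dissolved in 50:50 acetone/alcohol containing sulfonate/nonionic emulsifier blends, then diluted with water to the indicated concentrations. Leaves sprayed on both surfaces to runoff at 10 psi and dried one hour. Percent mortality scored after standard exposure periods.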

[11] = system: melon aphids (Aphis gossypii Glover); assay: Mite/insect screen, MA; settings: percent mortality; for mortality at 200 ppm / mortality at 400 ppm: Aphis gossypii, read-out: MA RESULTS %
Procedure, shortened: as §1

corn rootworm = assay: Mite/insect screen, CRW; settings: percent mortality; for mortality at 12 ppm / mortality at 24 ppm: read-out: CRW RESULTS %
Procedure, shortened: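 Compounds dissolved in 50:50 acetone/alcohol with TOXIMUL R and S emulsifiers (23 and 13 g/L), then diluted in water to the stated test concentrations. Percent mortality of corn rootworm scored after standard exposure periods.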

[12] = foliar, rate 200 ppm, foliar spray on squash
[13] = foliar, rate 400 ppm, foliar spray on squash
[14] = rate 400 ppm, foliar spray on squash

SMILES	POWD MDEW [1]	RICE BLAST [2]	LEAF RUST [3]	GRAY MOLD [4]	DOWN MDEW [5]	LEAF SPOT [6]	APPL SCAB [7]	LEAF BLOT [8]	mortality at 200 ppm ([9]; SAW, SM & MA RATE 200 PPM)	mortality at 200 ppm ([10]; SAW, SM & MA RATE 200 PPM)	mortality at 200 ppm ([11]; SAW, SM & MA RATE 200 PPM)	mortality at 12 ppm (corn rootworm; CRW RATE 12.00 PPM)	mortality at 200 ppm [9, 12]	mortality at 400 ppm [9, 13]	mortality at 200 ppm [10, 12]	mortality at 400 ppm [10, 13]	mortality at 200 ppm [11, 12]	mortality at 12 ppm (corn rootworm; CRW rate 12.00 ppm)	also measured
Fc1cccc(F)c1CCNc1ccnc2c(F)cccc12 [Example 65, N-[2-(2,6-difluorophenyl)ethyl]-8-fluoro-4-quinolinamine]	+ (20-89% control at 400 ppm)	+ (20-89% control at 400 ppm)	++ (90-100% control at 400 ppm)	- (0-19% control at 400 ppm)	+++ (90-100% control at 100 ppm)	- (0-19% control at 400 ppm)	- (0-19% control at 400 ppm)	+ (20-89% control at 400 ppm)	0%	0%	0%	0%							
COc1ccc(CCNc2ccnc3c(F)cccc23)cc1 [Example 36, 8-fluoro-N-[2-(4-methoxyphenyl)ethyl]-4-quinolinamine]	+ (20-89% control at 400 ppm)	+++ (90-100% control at 100 ppm)	+++ (90-100% control at 100 ppm)	- (0-19% control at 400 ppm)	+++ (90-100% control at 100 ppm)	+++ (90-100% control at 100 ppm)	- (0-19% control at 400 ppm)	+++ (90-100% control at 100 ppm)	0%	0%	0%	0%							mortality at 400 ppm ([9]; SAW, SM & MA RATE 400 PPM): 0%; SAW RESULTS % ([9]; SAW, SM & MA RATE 400 PPM): 0%; mortality at 400 ppm ([10]; SAW, SM & MA RATE 400 PPM): 0%; SM RESULTS % ([10]; SAW, SM & MA RATE 400 PPM): 0%; mortality at 400 ppm ([11]; SAW, SM & MA RATE 400 PPM): 0%; MA RESULTS % ([11]; SAW, SM & MA RATE 400 PPM): 0%; CRW RESULTS % (corn rootworm; CRW RATE 24.00 PPM): 0%; mortality at 24 ppm (corn rootworm; CRW RATE 24.00 PPM): 0%
Fc1cccc2c(NCCc3ccccn3)ccnc12 [Example 180, 8-fluoro-N-[2-(2-pyridinyl)ethyl]-4-quinolinamine]	++ (90-100% control at 400 ppm)	+ (20-89% control at 400 ppm)	- (0-19% control at 400 ppm)	- (0-19% control at 400 ppm)	++ (90-100% control at 400 ppm)	+ (20-89% control at 400 ppm)	- (0-19% control at 400 ppm)	+ (20-89% control at 400 ppm)					0%	0%	0%	0%	0%	0%	mortality at 400 ppm [11, 13]: 0%; mortality at 24 ppm (corn rootworm; CRW rate 24.00 ppm): 0%
Fc1ccc(CCOc2ccnc3cc(Cl)ccc23)cc1 [Example 236, 7-chloro-4-[2-(4-fluorophenyl)ethoxy]quinoline]													0%	0%	0%	0%	0%	0%	pest or weed control at 400 ppm ([1]; Blumeria graminis, foliar, Test 1, foliar spray on wheat, disease control rating at 400 ppm / 100 ppm, read-out: POWD MDEW): 90 to 100%; pest or weed control at 400 ppm ([2]; Pyricularia oryzae, foliar, read-out: RICE BLAST, Test 1, foliar spray on rice, disease control rating at 400 ppm / 100 ppm): 0 to 19%; pest or weed control at 400 ppm ([3]; Puccinia recondita, foliar, Test 1, foliar spray on wheat, disease control rating at 400 ppm / 100 ppm): 20 to 89%; pest or weed control at 400 ppm ([4]; Botrytis cinerea, foliar, Test 1, spray on grape berries, disease control rating at 400 ppm / 100 ppm): 0 to 19%; pest or weed control at 400 ppm ([5]; Pseudoperonospora cubensis, foliar, Test 1, foliar spray on squash, disease control rating at 400 ppm / 100 ppm, read-out: DOWN MDEW): 0 to 19%; pest or weed control at 400 ppm ([6]; Cercospora beticola, Test 1, foliar spray on sugar beet, disease control rating at 400 ppm / 100 ppm): 0 to 19%; pest or weed control at 400 ppm ([7]; Venturia inaequalis, Test 1, foliar spray on apple seedling, disease control rating at 400 ppm / 100 ppm, read-out: APPL SCAB): 0 to 19%; pest or weed control at 400 ppm ([8]; Zymoseptoria tritici, Test 1, foliar spray on wheat, disease control rating at 400 ppm / 100 ppm, read-out: LEAF BLOT): 0 to 19%; SAW RESULTS % [9, 14]: 0%; SM RESULTS % [10, 14]: 0%
COc1ccccc1CCNc1ccnc2ccccc12 [Example 55, N-[2-(2-methoxyphenyl)ethyl]-4-quinolinamine]	+ (20-89% control at 400 ppm)	++ (90-100% control at 400 ppm)	+ (20-89% control at 400 ppm)	- (0-19% control at 400 ppm)	++ (90-100% control at 400 ppm)	+++ (90-100% control at 100 ppm)	- (0-19% control at 400 ppm)	- (0-19% control at 400 ppm)	0%	0%	0%	0%							
